Laboratory results published in patent US9376418B2, “Substituted pyridine spleen tyrosine kinase (SYK) inhibitors” (Merck Sharp & Dohme Corp., priority 2012, dated 2016).

biological target: T1, recombinant human GST-SYK (Homo sapiens, UniProt P43405); assay: Homogeneous Time-Resolved Fluorescence (HTRF) assay for the recombinant human Syk enzyme; type: biochemical; details: HTRF assay, recombinant human GST-SYK; IC50 given as class symbols; read-out: rhSYK Activity
T1 construct: purchased Carna Biosciences 08-176
How it was run: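 Enzyme […], pH 7.5 Tris/tween/DTT buffer; 10 min preincubation with compound, RT. Start: 250 nM biotin-peptide, 25 μM ATP, 5 mM Mg; 45′ RT. Stop/detect: 40 mM EDTA, Eu-anti-pTyr, SA-APC; read 30 min later.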

IC50 [nM] | Structure (SMILES)
< 100 | Cc1cc(Nc2nccc(C(F)(F)F)n2)cc(-c2ccc([C@]3(O)CC[C@H](C(=O)O)CC3)nc2)c1 [Example 9.35, trans 4-hydroxy-4-[5-(3-methyl-5-{[4-(trifluoromethyl)pyrimidin-2-yl]amino}phenyl)pyridin-2-yl]cyclohexanecarboxylic acid]
< 100 | COc1ccnc(Nc2cc(C)cc(-c3ccc([C@]4(O)CC[C@H](C(=O)O)CC4)nc3)c2)n1 [Example 9.36, trans-4-hydroxy-4-(5-{3-[(4-methoxypyrimidin-2-yl)amino]-5-methylphenyl}pyridin-2-yl)cyclohexanecarboxylic acid]
< 100 | Cc1cc(Nc2nccc(C)n2)cc(-c2ccc([C@]3(O)CC[C@@H](C(=O)O)CC3)nc2)c1 [Example 9.37, cis-4-hydroxy-4-(5-{3-methyl-5-[(4-methylpyrimidin-2-yl)amino]phenyl}pyridin-2-yl)cyclohexanecarboxylic acid]
< 100 | Cc1cc(Nc2nccc(C)n2)cc(-c2ccc([C@]3(O)CC[C@H](C(=O)O)CC3)nc2)c1 [Example 9.38, trans-4-hydroxy-4-(5-{3-methyl-5-[(4-methylpyrimidin-2-yl)amino]phenyl}pyridin-2-yl)cyclohexanecarboxylic acid]
< 100 | Cc1cc(Nc2nccc(C)n2)cc(-c2ccc(C3(O)CCC(C(=O)O)C(C)(C)C3)nc2)c1 (stereo not drawn) [Example 9.39, 4-hydroxy-2,2-dimethyl-4-(5-{3-methyl-5-[(4-methylpyrimidin-2-yl)amino]phenyl}pyridin-2-yl)cyclohexanecarboxylic acid]
100 to 1000 | CCOC(=O)C1CCC(O)(c2ccc(-c3cc(C)cc(Nc4nccc(C)n4)c3)cn2)CC1(C)C (stereo not drawn) [Example 9.40, ethyl 4-hydroxy-2,2-dimethyl-4-(5-{3-methyl-5-[(4-methylpyrimidin-2-yl)amino]phenyl}pyridin-2-yl)cyclohexanecarboxylate]
100 to 1000 | COC(=O)C1CCC(O)(c2ccc(-c3cc(C)cc(Nc4nccc(C(F)(F)F)n4)c3)cn2)CC1(C)C (stereo not drawn) [Example 9.41, methyl 4-hydroxy-2,2-dimethyl-4-[5-(3-methyl-5-{[4-(trifluoromethyl)pyrimidin-2-yl]amino}phenyl)pyridin-2-yl]cyclohexanecarboxylate]
100 to 1000 | CCOC(=O)C1CCC(O)(c2ccc(-c3cc(C)cc(Nc4nccc(C(F)(F)F)n4)c3)cn2)CC1(C)C (stereo not drawn) [Example 9.42, ethyl 4-hydroxy-2,2-dimethyl-4-[5-(3-methyl-5-{[4-(trifluoromethyl)pyrimidin-2-yl]amino}phenyl)pyridin-2-yl]cyclohexanecarboxylate]
< 100 | CC1(C)CC(O)(c2ccc(-c3cccc(Nc4nccc(C(F)(F)F)n4)c3)cn2)CCC1C(=O)O (stereo not drawn) [Example 9.43, 4-hydroxy-2,2-dimethyl-4-[5-(3-{[4-(trifluoromethyl)pyrimidin-2-yl]amino}phenyl)pyridin-2-yl]cyclohexanecarboxylic acid]
100 to 1000 | CCOC(=O)C1(C)CCC(O)(c2ccc(-c3cc(C)cc(Nc4nccc(C(F)(F)F)n4)c3)cn2)CC1 (stereo not drawn) [Example 9.44, ethyl 4-hydroxy-1-methyl-4-[5-(3-methyl-5-{[4-(trifluoromethyl)pyrimidin-2-yl]amino}phenyl)pyridin-2-yl]cyclohexanecarboxylate]
< 100 | Cc1cc(Nc2nccc(C(F)(F)F)n2)cc(-c2ccc(C3(O)CCC(C(=O)O)C(C)(C)C3)nc2)c1 (stereo not drawn) [Example 9.46, 4-hydroxy-2,2-dimethyl-4-[5-(3-methyl-5-{[4-(trifluoromethyl)pyrimidin-2-yl]amino}phenyl)pyridin-2-yl]cyclohexanecarboxylic acid]
1000 to 10000 | CCOC(=O)C1CCC(O)(c2ccc(-c3cc(C)cc(Nc4nccc(C(F)(F)F)n4)c3)cn2)C1(C)C (stereo not drawn) [Example 9.47, ethyl 3-hydroxy-2,2-dimethyl-3-[5-(3-methyl-5-{[4-(trifluoromethyl)pyrimidin-2-yl]amino}phenyl)pyridin-2-yl]cyclopentanecarboxylate]
< 100 | Cc1cc(Nc2nccc(C(F)(F)F)n2)cc(-c2ccc(C3(O)CCC(=O)CC3)nc2)c1 [Example 9.54, 4-hydroxy-4-[5-(3-methyl-5-{[4-(trifluoromethyl)pyrimidin-2-yl]amino}phenyl)pyridin-2-yl]cyclohexanone]
< 100 | Cc1cc(Nc2nccc(C(F)(F)F)n2)cc(-c2ccc(C3(O)COC3)nc2)c1 [Example 9.55, 3-[5-(3-methyl-5-{[4-(trifluoromethyl)pyrimidin-2-yl]amino}phenyl)pyridin-2-yl]oxetan-3-ol]
< 100 | Cc1cc(Nc2nccc(C(F)(F)F)n2)cc(-c2ccc(C(C)(O)CO)nc2)c1 (stereo not drawn) [Example 9.56, 2-[5-(3-methyl-5-{[4-(trifluoromethyl)pyrimidin-2-yl]amino}phenyl)pyridin-2-yl]propane-1,2-diol]
< 100 | Cc1cc(Nc2nccc(C(F)(F)F)n2)cc(-c2ccc(C(C)(O)CO)nc2)c1 (stereo not drawn) [Example 9.57, 2-[5-(3-methyl-5-{[4-(trifluoromethyl)pyrimidin-2-yl]amino}phenyl)pyridin-2-yl]propane-1,2-diol]
< 100 | Cc1cc(Nc2nccc(C(F)(F)F)n2)cc(-c2ccc([C@]3(O)CC[C@@H](O)CC3)nc2)c1 [Example 9.58, cis-1-[5-(3-methyl-5-{[4-(trifluoromethyl)pyrimidin-2-yl]amino}phenyl)pyridin-2-yl]cyclohexane-1,4-diol]
< 100 | Cc1cc(Nc2nccc(C(F)(F)F)n2)cc(-c2ccnc(C3(O)CCC3)c2)c1 [Example 9.60, 1-[4-(3-methyl-5-{[4-(trifluoromethyl)pyrimidin-2-yl]amino}phenyl)pyridin-2-yl]cyclobutanol]
< 100 | Cc1cc(Nc2nccc(C(F)(F)F)n2)cc(-c2ccnc(C(C)(C)O)c2)c1 [Example 9.61, 2-[4-(3-methyl-5-{[4-(trifluoromethyl)pyrimidin-2-yl]amino}phenyl)pyridin-2-yl]propan-2-ol]
100 to 1000 | Cc1cc(Nc2nccc(C(F)(F)F)n2)cc(-c2ccnc(C3(O)COC(C)(C)OC3)c2)c1 [Example 9.62, 2,2-dimethyl-5-[4-(3-methyl-5-{[4-(trifluoromethyl)pyrimidin-2-yl]amino}phenyl)pyridin-2-yl]-1,3-dioxan-5-ol]
< 100 | Cc1cc(Nc2nccc(C(F)(F)F)n2)cc(-c2ccnc(C3(O)CCC4(CC3)OCCO4)c2)c1 [Example 9.63, 8-[4-(3-methyl-5-{[4-(trifluoromethyl)pyrimidin-2-yl]amino}phenyl)pyridin-2-yl]-1,4-dioxaspiro[4.5]decan-8-ol]
< 100 | Cc1cc(Nc2nccc(C(F)(F)F)n2)cc(-c2ccnc(C(C)(O)CO)c2)c1 (stereo not drawn) [Example 9.64, 2-[4-(3-methyl-5-{[4-(trifluoromethyl)pyrimidin-2-yl]amino}phenyl)pyridine-2-yl]propane-1,2-diol]
< 100 | Cc1cc(Nc2nccc(C(F)(F)F)n2)cc(-c2ccnc(C(O)(CO)CO)c2)c1 [Example 9.65, 2-[4-(3-methyl-5-{[4-(trifluoromethyl)pyrimidin-2-yl]amino}phenyl)pyridine-2-yl]propane-1,2,3-triol]
< 100 | Cc1cc(Nc2nccc(C(F)(F)F)n2)cc(-c2cncc(C3(O)CCCC(C(=O)O)C3)c2)c1 (stereo not drawn) [Example 9.66, 3-hydroxy-3-[5-(3-methyl-5-{[4-(trifluoromethyl)pyrimidin-2-yl]amino}phenyl)pyridin-3-yl]cyclohexanecarboxylic acid]
